ChEMBL document CHEMBL2396528, “Synthesis of new conjugated coumarin-benzimidazole hybrids and their anticancer activity” (2013)
Activity calls are given as the source filed them. No cut-off for these calls is given here.

Assays:
Assay type in all cases: functional
HL-60(TB) = experiment: Cytotoxicity against human HL-60(TB) cells assessed as growth inhibition at 10 uM after 48 hrs by SRB assay relative to control; settings: HL-60, 48 h, read-out: GI
RPMI-8226 = experiment: Cytotoxicity against human RPMI8226 cells assessed as growth inhibition at 10 uM after 48 hrs by SRB assay relative to control; settings: RPMI-8226, 48 h, read-out: GI
NCI-H322M = experiment: Cytotoxicity against human NCI-H322M cells assessed as growth inhibition at 10 uM after 48 hrs by SRB assay relative to control; settings: read-out: GI
HCT-15 = experiment: Cytotoxicity against human HCT15 cells assessed as growth inhibition at 10 uM after 48 hrs by SRB assay relative to control; settings: HCT-15, 48 h, read-out: GI
HOP-92 = experiment: Cytotoxicity against human HOP92 cells assessed as growth inhibition at 10 uM after 48 hrs by SRB assay relative to control; settings: HOP-92, 48 h, read-out: GI
OVCAR-4 = experiment: Cytotoxicity against human OVCAR4 cells assessed as growth inhibition at 10 uM after 48 hrs by SRB assay relative to control; settings: OVCAR-4, 48 h, read-out: GI
HCT-116 = experiment: Cytotoxicity against human HCT116 cells assessed as growth inhibition at 10 uM after 48 hrs by SRB assay relative to control; settings: HCT-116, 48 h, read-out: GI
UO-31 = experiment: Cytotoxicity against human UO31 cells assessed as growth inhibition at 10 uM after 48 hrs by SRB assay relative to control; settings: UO-31, 48 h, read-out: GI
BT-549 = experiment: Cytotoxicity against human BT549 cells assessed as growth inhibition at 10 uM after 48 hrs by SRB assay relative to control; settings: BT-549, 48 h, read-out: GI
CCRF-CEM = experiment: Cytotoxicity against human CCRF-CEM cells assessed as growth inhibition at 10 uM after 48 hrs by SRB assay relative to control; settings: read-out: GI
U-251 = experiment: Cytotoxicity against human U251 cells assessed as growth inhibition at 10 uM after 48 hrs by SRB assay relative to control; settings: U-251, 48 h, read-out: GI
A498 = experiment: Cytotoxicity against human A498 cells assessed as growth inhibition at 10 uM after 48 hrs by SRB assay relative to control; settings: for inhibition of growth at 10 µM: A498, 48 h, read-out: GI
Hs-578T = experiment: Cytotoxicity against human Hs578T cells assessed as growth inhibition at 10 uM after 48 hrs by SRB assay relative to control; settings: for inhibition of growth at 10 µM: read-out: GI
SW-620 = experiment: Cytotoxicity against human SW620 cells assessed as growth inhibition at 10 uM after 48 hrs by SRB assay relative to control; settings: SW-620, 48 h, read-out: GI
A549 = experiment: Cytotoxicity against human A549 cells assessed as growth inhibition at 10 uM after 48 hrs by SRB assay relative to control; settings: A549, 48 h, read-out: GI
LOX IMVI = experiment: Cytotoxicity against human LOXIMVI cells assessed as growth inhibition at 10 uM after 48 hrs by SRB assay relative to control; settings: read-out: GI
SR = experiment: Cytotoxicity against human SR cells assessed as growth inhibition at 10 uM after 48 hrs by SRB assay relative to control; settings: read-out: GI

| Compound | inhibition of growth at 10 µM (HL-60(TB)) | inhibition of growth at 10 µM (RPMI-8226) | inhibition of growth at 10 µM (NCI-H322M) | inhibition of growth at 10 µM (HCT-15) | inhibition of growth at 10 µM (HOP-92) | inhibition of growth at 10 µM (OVCAR-4) | inhibition of growth at 10 µM (HCT-116) | inhibition of growth at 10 µM (UO-31) | inhibition of growth at 10 µM (BT-549) | inhibition of growth at 10 µM (CCRF-CEM) | inhibition of growth at 10 µM (U-251) | inhibition of growth at 10 µM (A498) | inhibition of growth at 10 µM (Hs-578T) | inhibition of growth at 10 µM (SW-620) | inhibition of growth at 10 µM (A549) | inhibition of growth at 10 µM (LOX IMVI) | inhibition of growth at 10 µM (SR) | growth inhibition (GI) (A498) | growth inhibition (GI) (Hs-578T) |
| --- | --- | --- | --- | --- | --- | --- | --- | --- | --- | --- | --- | --- | --- | --- | --- | --- | --- | --- | --- |
| O=c1oc2cc(NCCN3CCOCC3)ccc2cc1-c1nc2ccccc2[nH]1 | < 20% | < 20% | < 20% | < 20% | 23.3% | < 20% | < 20% | 34.3% | < 20% | < 20% | < 20% | < 20% | < 20% | < 20% | < 20% | < 20% |  |  |  |
| O=c1oc2cc(Br)ccc2cc1-c1nc2ccccc2[nH]1 | < 20% | < 20% | < 20% | < 20% | 20.1% | < 20% | < 20% | 22.7% | < 20% | < 20% | < 20% | < 20% | 25.1% | < 20% | < 20% | < 20% | 21.5% |  |  |
| CN1CCN(c2ccc3cc(-c4nc5ccccc5[nH]4)c(=O)oc3c2)CC1 | 27.1% | 35.4% | < 20% | < 20% | 41.1% | 29.8% | < 20% | 34.6% | < 20% | 26.5% | < 20% | < 20% | < 20% | < 20% | < 20% | < 20% | < 20% |  |  |
| O=c1[nH]cc(F)c(=O)[nH]1 [FLUOROURACIL] | 47.9% | 41.4% | 59.5% | 26.5% | 50.6% | 59.4% | 17.8% | 41.3% | 37.8% | 57.1% | 50.3% |  |  | < 20% | 34.2% | 30.4% | 24.8% | Active | Active |
| O=c1oc2cc(N3CCOCC3)ccc2cc1-c1nc2ccccc2[nH]1 | < 20% | < 20% | < 20% | < 20% | 20.7% | < 20% | < 20% | 24.9% | < 20% | < 20% | < 20% | < 20% | < 20% | < 20% | < 20% | < 20% | < 20% |  |  |
| NCCNc1ccc2cc(-c3nc4ccccc4[nH]3)c(=O)oc2c1 | < 20% |  | < 20% | 20.6% | < 20% | < 20% | < 20% | < 20% | < 20% | < 20% | < 20% | < 20% | < 20% | < 20% | < 20% | < 20% | < 20% |  |  |
| O=c1oc2cc(NCCO)ccc2cc1-c1nc2ccccc2[nH]1 | 80.5% | 46.6% | 29.7% | 72.7% | < 20% | 44.8% | 62.2% | 41.9% | 33.1% | 72.5% | 20.7% | < 20% | < 20% | 21.4% | < 20% | 54.3% | < 20% |  |  |
